Laboratory results as given in patent publication US20110053916A1 (Vertex Pharmaceuticals Incorporated, priority 2009, published 2011).

What follows are compounds tested against T1, PknB (Mycobacterium tuberculosis, UniProt P9WI81) (assay: biochemical). Conditions: 3 nM PknB, 6 uM GarA, 3 μM ATP, 30 min; competitive tight-binding fit; several symbols in a cell = repeat determinations.
T1 construct: made in house
Design: species or system M. tuberculosis

T1 sequence (P9WI81 whole entry): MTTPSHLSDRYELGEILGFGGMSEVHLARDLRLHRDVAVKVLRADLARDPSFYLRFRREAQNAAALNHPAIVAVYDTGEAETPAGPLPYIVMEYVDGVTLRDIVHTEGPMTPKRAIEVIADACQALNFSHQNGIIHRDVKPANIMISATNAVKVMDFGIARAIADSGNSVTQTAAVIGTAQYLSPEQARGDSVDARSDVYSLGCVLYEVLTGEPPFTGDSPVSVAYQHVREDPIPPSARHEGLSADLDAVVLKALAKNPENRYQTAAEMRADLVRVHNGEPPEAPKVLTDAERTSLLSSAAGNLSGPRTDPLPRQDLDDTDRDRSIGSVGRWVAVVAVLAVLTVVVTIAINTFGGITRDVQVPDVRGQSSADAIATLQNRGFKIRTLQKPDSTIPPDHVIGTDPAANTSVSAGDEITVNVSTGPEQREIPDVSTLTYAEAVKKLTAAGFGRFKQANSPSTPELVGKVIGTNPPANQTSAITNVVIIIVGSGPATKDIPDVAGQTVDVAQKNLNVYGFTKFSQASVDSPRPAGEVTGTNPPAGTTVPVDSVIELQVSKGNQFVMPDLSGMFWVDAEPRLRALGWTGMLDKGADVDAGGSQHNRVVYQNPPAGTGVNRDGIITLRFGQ

SMILES	Ki Values
NS(=O)(=O)C/C=C/c1cccc(Nc2cc(C3CC3)[nH]n2)n1 [Compound 270, 3-[6-[(5-cyclopropyl-1H-pyrazol-3-yl)amino]-2-pyridyl]prop-2-ene-1-sulfonamide]	B**, B*, B*, B*
C#Cc1cnc(N2CC[C@@H](NC(C)=O)C2)nc1Nc1cc(C2CC2)n[nH]1 [Compound 193, N-[1-[4-[(5-cyclopropyl-2H-pyrazol-3-yl)amino]-5-ethynyl-pyrimidin-2-yl]pyrrolidin-3-yl]acetamide]	B, C
C#Cc1cnc(N2CC[C@H](NC(=O)OC(C)(C)C)C2)nc1Nc1cc(C2CC2)n[nH]1 [Compound 169, tert-butyl [[1-[4-[(5-cyclopropyl-2H-pyrazol-3-yl)amino]-5-ethynyl-pyrimidin-2-yl]pyrrolidin-3-yl]amino]formate]	C, D
CC(=O)c1ccc(-c2ncc(Cl)c(Nc3cc(C4CC4)[nH]n3)n2)s1 [Compound 116, 1-(5-(5-chloro-4-(5-cyclopropyl-1H-pyrazol-3-ylamino)pyrimidin-2-yl)thiophen-2-yl)ethanone]	A**, A*
NS(=O)(=O)c1cc(-c2ncc(Cl)c(Nc3cc(C4CC4)[nH]n3)n2)ccc1Cl [Compound 58, 2-chloro-5-[5-chloro-4-[(5-cyclopropyl-1H-pyrazol-3-yl)amino]-pyrimidin-2-yl]-benzenesulfonamide]	B, C, C

Same assay, conditions: 3 nM PknB, 6 uM GarA, 3 μM ATP, 30 min; competitive tight-binding fit; several symbols in a cell = repeat determinations; read-out: Ki Values

SMILES	Ki
CNS(=O)(=O)c1cccc(-c2ncc(Cl)c(Nc3cc(C4CC4)[nH]n3)n2)c1 [Compound 127, 3-[5-chloro-4-[(5-cyclopropyl-1H-pyrazol-3-yl)amino]-pyrimidin-2-yl]-N-methyl-benzenesulfonamide]	0.01 to 0.05 µM
Cc1cnc(-c2cccc(S(N)(=O)=O)c2)nc1Nc1cc(C2CC2)[nH]n1 [Compound 31, 3-[4-[(5-cyclopropyl-1H-pyrazol-3-yl)amino]-5-methyl-pyrimidin-2-yl]benzenesulfonamide]	0.01 to 0.05 µM
C#Cc1cnc(N2CCNCC2)nc1Nc1cc(C2CC2)n[nH]1 [Compound 175]	2 to 4 µM
C#Cc1cnc(-c2ccc(CC#N)s2)nc1Nc1cc(C2CC2)n[nH]1 [Compound 130, 2-(5-(4-(3-Cyclopropyl-1H-pyrazol-5-ylamino)-5-ethynylpyrimidin-2-yl)thiophen-2-yl)acetonitrile]	0.001 to 0.01 µM
COC/C=C/c1cnc(-c2ccccc2)nc1Nc1cc(C2CC2)[nH]n1 [Compound 39, (E)-N-(5-cyclopropyl-1H-pyrazol-3-yl)-5-(3-methoxyprop-1-enyl)-2-phenylpyrimidin-4-amine]	0.5 to 1 µM
C#Cc1cnc(C2=CCNCC2)nc1Nc1cc(C2CC2)[nH]n1 [Compound 249, N-(5-cyclopropyl-1H-pyrazol-3-yl)-5-ethynyl-2-(1,2,3,6-tetrahydropyridin-4-yl)pyrimidin-4-amine]	> 4 µM
C#Cc1cnc(N2CCCCC2C(=O)OC)nc1Nc1cc(C2CC2)[nH]n1 (stereo not shown) [Compound 244, methyl 1-[4-[(5-cyclopropyl-1H-pyrazol-3-yl)amino]-5-ethynyl-pyrimidin-2-yl]piperidine-2-carboxylate]	> 4 µM
NS(=O)(=O)C/C=C/c1nccc(Nc2cc(C3CC3)[nH]n2)n1 [Compound 54, 3-[4-[(5-cyclopropyl-1H-pyrazol-3-yl)amino]pyrimidin-2-yl]prop-2-ene-1-sulfonamide]	1 to 2 µM
NNS(=O)(=O)c1ccc(-c2ncc(Cl)c(Nc3cc(C4CC4)[nH]n3)n2)s1 [Compound 251, 5-(5-chloro-4-(5-cyclopropyl-1H-pyrazol-3-ylamino)pyrimidin-2-yl)thiophene-2-sulfonohydrazide]	0.01 to 0.05 µM
C#Cc1cnc(-c2ccc(C#N)s2)nc1Nc1cc(C2CC2)[nH]n1 [Compound 157, 5-(4-(5-Cyclopropyl-1H-pyrazol-3-ylamino)-5-ethynylpyrimidin-2-yl)thiophene-2-carbonitrile]	0.001 to 0.01 µM
CC(=O)c1sc(-c2ncc(Cl)c(Nc3cc(C4CC4)[nH]n3)n2)nc1C [Compound 297, 1-(2-(5-Chloro-4-(5-cyclopropyl-1H-pyrazol-3-ylamino)pyrimidin-2-yl)-4-methylthiazol-5-yl)ethanone]	0.01 to 0.05 µM
CC(=O)Nc1cnc(-c2ccccc2)nc1Nc1cc(C2CC2)[nH]n1 [Compound 10, N-(4-(5-cyclopropyl-1H-pyrazol-3-ylamino)-2-phenylpyrimidin-5-yl)acetamide]	1 to 2 µM
O=S(=O)(NC1CCOC1)c1ccc(-c2ncc(Cl)c(Nc3cc(C4CC4)[nH]n3)n2)s1 (stereo not shown) [Compound 152, 5-[5-chloro-4-[(5-cyclopropyl-1H-pyrazol-3-yl)amino]-pyrimidin-2-yl]-N-tetrahydrofuran-3-yl-thiophene-2-sulfonamide]	0.01 to 0.05 µM
OCc1ccc(-c2nccc(Nc3cc(C4CC4)[nH]n3)n2)s1 [Compound 22, (5-(4-(5-cyclopropyl-1H-pyrazol-3-ylamino)pyrimidin-2-yl)thiophen-2-yl)methanol]	0.01 to 0.05 µM
NS(=O)(=O)c1ccc(-c2cccc(Nc3cc(C4CC4)[nH]n3)n2)s1 [Compound 272, 5-[6-[(5-cyclopropyl-1H-pyrazol-3-yl)amino]-2-pyridyl]thiophene-2-sulfonamide]	0.001 to 0.01 µM
O=C(O)c1cccc(Nc2ncc(Cl)c(Nc3cc(C4CC4)[nH]n3)n2)c1 [Compound 73, 3-[[5-chloro-4-[(5-cyclopropyl-1H-pyrazol-3-yl)amino]-pyrimidin-2-yl]amino]benzoic acid]	0.1 to 0.5 µM
CC(C)(C)NS(=O)(=O)c1ccc(-c2ncc(CO)c(Nc3cc(C4CC4)[nH]n3)n2)s1 [Compound 163, N-tert-butyl-5-(4-(5-cyclopropyl-1H-pyrazol-3-ylamino)-5-(hydroxymethyl)pyrimidin-2-yl)thiophene-2-sulfonamide]	0.1 to 0.5 µM
CN1CCN(c2cc(Nc3cc(C4CC4)[nH]n3)nc(-c3ccc(S(N)(=O)=O)s3)n2)CC1 [Compound 325, 5-[4-[(5-cyclopropyl-1H-pyrazol-3-yl)amino]-6-(4-methylpiperazin-1-yl)-pyrimidin-2-yl]thiophene-2-sulfonamide]	0.1 to 0.5 µM
C=Cc1cnc(-c2ccc(S(N)(=O)=O)s2)nc1Nc1cc(C2CC2)[nH]n1 [Compound 209, 5-(4-(5-Cyclopropyl-1H-pyrazol-3-ylamino)-5-vinylpyrimidin-2-yl)thiophene-2-sulfonamide]	0.001 to 0.01 µM
NS(=O)(=O)c1ccc(-c2nc(Nc3cc(C4CC4)n[nH]3)cc(C3CC3)n2)s1 [Compound 298, 5-(4-cyclopropyl-6-(3-cyclopropyl-1H-pyrazol-5-ylamino)pyrimidin-2-yl)thiophene-2-sulfonamide]	0.05 to 0.1 µM
N#Cc1cccc(Nc2ncc(Cl)c(Nc3cc(C4CC4)[nH]n3)n2)c1 [Compound 89, 3-[[5-chloro-4-[(5-cyclopropyl-1H-pyrazol-3-yl)amino]-pyrimidin-2-yl]amino]benzonitrile]	0.1 to 0.5 µM
Oc1cnc(-c2ccccc2)nc1Nc1cc(C2CC2)[nH]n1 [Compound 55, 4-(5-cyclopropyl-1H-pyrazol-3-ylamino)-2-phenylpyrimidin-5-ol]	1 to 2 µM
CC(=O)NCCNS(=O)(=O)c1ccc(-c2ncc(Cl)c(Nc3cc(C4CC4)[nH]n3)n2)s1 [Compound 118, N-(2-(5-(5-chloro-4-(5-cyclopropyl-1H-pyrazol-3-ylamino)pyrimidin-2-yl)thiophene-2-sulfonamido)ethyl)acetamide]	0.01 to 0.05 µM
